Where a SMILES comes first, the peptide text is derived from it. [ ]: non-standard residue; d: D form. Oic = O=C(O)[C@@H]1C[C@@H]2CCCC[C@@H]2N1; Gly(octyl) = CCCCCCCC[C@H](N)C(=O)O; hTyr = N[C@@H](CCc1ccc(O)cc1)C(=O)O; Aad = N[C@@H](CCCC(=O)O)C(=O)O; hSer = N[C@@H](CCO)C(=O)O
Columns and labels:
Assay type in all cases: biochemical
[1] = molecular target: T1, porcine pancreatic elastase (Sus scrofa, UniProt P00772); test: Inhibition of porcine pancreatic elastase (hydrolysis of MeOSuc-AAA-pNA); conditions: for hNE/PPE selectivity: ratio of PPE IC50 to hNE IC50; for IC50: substrate MeOSuc-AAA-pNA 1 mM, enzyme 15 nM, 37° C., pH8, read-out: Porcine pancreatic elastase (PPE) IC50
T1 construct: purchased Sigma, USA
T1 sequence (P00772 27-266): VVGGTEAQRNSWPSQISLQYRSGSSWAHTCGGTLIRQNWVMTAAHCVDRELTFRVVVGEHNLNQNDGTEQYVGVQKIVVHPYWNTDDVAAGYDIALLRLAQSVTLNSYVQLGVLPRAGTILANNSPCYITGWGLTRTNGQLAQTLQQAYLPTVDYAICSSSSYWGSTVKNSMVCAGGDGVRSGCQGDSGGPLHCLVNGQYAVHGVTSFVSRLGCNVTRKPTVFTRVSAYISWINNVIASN
In short: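 Elastase (15 nM) incubated at 37 °C with 1 mM MeOSuc-AAA-pNA and serially diluted peptides (0.5% DMSO) in 50 mM Tris pH 8, 100 mM NaCl, 0.01% Tween20. pNA release read at 405 nm over 30 min; IC50 from 4-parameter Hill fit.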

[2] = molecular target: T2, human neutrophil elastase (Homo sapiens, UniProt P08246); test: Inhibition of human neutrophil elastase (hydrolysis of MeOSuc-AAPV-pNA); conditions: substrate MeOSuc-AAPV-pNA 0.3 mM, enzyme 10 nM, 37° C., pH 8; read-out: Human neutrophil elastase (hNE) IC50
T2 construct: purchased Serva Electrophoresis, Germany
T2 sequence (P08246 30-267): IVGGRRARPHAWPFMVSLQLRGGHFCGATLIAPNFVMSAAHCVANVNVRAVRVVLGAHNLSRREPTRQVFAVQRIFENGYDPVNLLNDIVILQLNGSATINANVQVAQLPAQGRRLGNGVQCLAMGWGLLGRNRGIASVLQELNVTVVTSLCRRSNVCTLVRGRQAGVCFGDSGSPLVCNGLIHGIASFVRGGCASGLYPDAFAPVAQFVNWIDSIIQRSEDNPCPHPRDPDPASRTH
In short: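 MeOSuc-AAPV-pNA (0.3 mM) hydrolysis by 10 nM enzyme at 37° C with serially diluted peptides (1% DMSO) in 50 mM Tris pH 8, 300 mM NaCl, 0.01% Tween20. pNA release read at 405 nm over 30 minutes; IC50 from 4-parameter Hill fit.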

human proteinase 3 = molecular target: T3, human proteinase 3 (Homo sapiens, UniProt P24158); test: Inhibition of human proteinase 3 (substrate Boc-Ala-Ala-Nva-SBzl); conditions: for hNE/hPr3 selectivity: ratio of hPr3 IC50 to hNE IC50; for IC50: substrate Boc-Ala-Ala-Nva-SBzl 1 mM, enzyme 10 nM, 37° C., pH7.4, read-out: Human proteinase 3 (hPr3) IC50
T3 construct: purchased Elastin Products Company, USA
T3 sequence (P24158 28-248): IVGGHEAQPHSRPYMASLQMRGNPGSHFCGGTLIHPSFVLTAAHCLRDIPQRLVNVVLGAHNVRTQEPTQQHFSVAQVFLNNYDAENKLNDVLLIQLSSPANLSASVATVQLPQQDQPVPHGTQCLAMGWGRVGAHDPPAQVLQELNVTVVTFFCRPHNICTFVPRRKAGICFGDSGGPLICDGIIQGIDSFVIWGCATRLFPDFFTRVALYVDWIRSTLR
In short: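 Enzyme at 10 nM incubated at 37°C with 1 mM thiobenzyl ester substrate, 250 μM 4,4′-dithiodipyridine and serial peptide dilutions (0.5% DMSO) in Tris pH 7.4, 150 mM NaCl, 0.01% Tween20. Absorbance at 340 nm followed over 30 min; IC50 from 4-parameter Hill fit.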

Q: `CCCCCCCC[C@@H]1NC(=O)[C@@H]2CCCN2C(=O)[C@H]2CCCN2C(=O)[C@H](CCO)NC(=O)[C@H](CCCCN)NC(=O)[C@H](CCC(N)=O)NC(=O)[C@@H]2CCCN2C(=O)[C@@H]2CCCN2C(=O)[C@H]([C@@H](C)CC)NC(=O)[C@H](CO)NC(=O)[C@H](C)NC(=O)[C@H]([C@@H](C)O)NC(=O)[C@H](CCC(=O)O)NC1=O` [Example 4, Cyclo(-OctGly-Glu-Thr-Ala-Ser-Ile-Pro-Pro-Gln-Lys-hSer-^DPro-Pro-)] (cyclo([Gly(octyl)]ETASIPPQK[hSer][dP]P)) was tested. Which hNE/PPE selectivity [1] did it give?
A: 157

Q: What about the IC50 [1] of the same compound?
A: 1350 nM

Q: And the IC50 [2]?
A: 8.6 nM

Q: And the hNE/hPr3 selectivity (human proteinase 3)?
A: 119

Q: And the IC50 (human proteinase 3)?
A: 1020 nM

Q: For `CC[C@H](C)[C@@H]1NC(=O)[C@H](CO)NC(=O)[C@H](C)NC(=O)[C@H]([C@@H](C)O)NC(=O)[C@H](C(C)C)NC(=O)[C@H](CCCNC(=N)N)NC(=O)[C@H](CCC(=O)O)NC(=O)[C@H]2CCCN2C(=O)[C@H]([C@@H](C)O)NC(=O)[C@H](CCCCN)NC(=O)[C@H](CCC(N)=O)NC(=O)[C@@H]2C[C@@H]3CCCC[C@@H]3N2C(=O)[C@@H]2CCCN2C1=O` [Example 44, Cyclo(-Arg-Val-Thr-Ala-Ser-Ile-Pro-Oic-Gln-Lys-Thr-^DPro-Glu-)] (cyclo(RVTASIP[Oic]QKT[dP]E)), which hNE/PPE selectivity [1] is on record?
A: >10417

Q: What about the IC50 [1] of the same compound?
A: > 100000 nM

Q: And the IC50 [2]?
A: 9.6 nM

Q: What about the hNE/hPr3 selectivity (human proteinase 3) of the same compound?
A: >10417

Q: And the IC50 (human proteinase 3)?
A: > 100000 nM

Q: Which results are given for `CCCCCCCC[C@@H]1NC(=O)[C@H](Cc2ccc(O)cc2)NC(=O)[C@@H](CCCCN)NC(=O)[C@H]([C@@H](C)O)NC(=O)[C@H](CCCCN)NC(=O)[C@H](CCC(N)=O)NC(=O)[C@@H]2CCCN2C(=O)[C@@H]2CCCN2C(=O)[C@H]([C@@H](C)CC)NC(=O)[C@H](CO)NC(=O)[C@H](C)NC(=O)[C@H]([C@@H](C)O)NC(=O)[C@H](CCC(=O)O)NC1=O` [Example 27, Cyclo(-OctGly-Glu-Thr-Ala-Ser-Ile-Pro-Pro-GI n-Lys-Thr-^DLys-Tyr-)] (cyclo([Gly(octyl)]ETASIPPQKT[dK]Y))?
A: hNE/PPE selectivity [1]: 4366; IC50 [1]: 44100 nM; IC50 [2]: 10.1 nM; hNE/hPr3 selectivity (human proteinase 3): 3921; IC50 (human proteinase 3): 39600 nM

Q: How did the hNE/PPE selectivity [1] turn out when `CC[C@H](C)[C@@H]1NC(=O)[C@H](CO)NC(=O)[C@H](C)NC(=O)[C@H]([C@@H](C)O)NC(=O)[C@H](CCC(=O)O)NC(=O)[C@H](CCCNC(=N)N)NC(=O)[C@@H]2CCCN2C(=O)[C@H]2CCCN2C(=O)[C@H]([C@@H](C)O)NC(=O)[C@H](CCCCN)NC(=O)[C@H](CCC(N)=O)NC(=O)[C@@H]2C[C@@H]3CCCC[C@@H]3N2C(=O)[C@@H]2CCCN2C1=O` [Example 16, Cyclo(-Arg-Glu-Thr-Ala-Ser-Ile-Pro-Oic-Gln-Lys-Thr-^DPro-Pro-)] (cyclo(RETASIP[Oic]QKT[dP]P)) was run?
A: >6667

Q: And the IC50 [1]?
A: > 100000 nM

Q: What about the IC50 [2] of the same compound?
A: 15 nM

Q: And the hNE/hPr3 selectivity (human proteinase 3)?
A: >6667

Q: And the IC50 (human proteinase 3)?
A: > 100000 nM

Q: Which results are given for `CCCCCCCC[C@@H]1NC(=O)[C@@H]2CCCN2C(=O)[C@H]2CCCN2C(=O)[C@H](CO)NC(=O)[C@H](CCCCN)NC(=O)[C@H](CCC(N)=O)NC(=O)[C@@H]2CCCN2C(=O)[C@@H]2CCCN2C(=O)[C@H]([C@@H](C)CC)NC(=O)[C@H](CO)NC(=O)[C@H](C)NC(=O)[C@H]([C@@H](C)O)NC(=O)[C@H](CCc2ccc(O)cc2)NC1=O` [Example 47] (cyclo([Gly(octyl)][hTyr]TASIPPQKS[dP]P))?
A: hNE/PPE selectivity [1]: 357; IC50 [1]: 500 nM; IC50 [2]: 1.4 nM; hNE/hPr3 selectivity (human proteinase 3): 714; IC50 (human proteinase 3): 1000 nM

Q: How did the hNE/PPE selectivity [1] turn out when `CCCCCCCC[C@@H]1NC(=O)[C@@H]2CCCN2C(=O)[C@H]2CCCN2C(=O)[C@H](CCCC(N)=O)NC(=O)[C@H](CCCCN)NC(=O)[C@H](CCC(N)=O)NC(=O)[C@@H]2CCCN2C(=O)[C@@H]2CCCN2C(=O)[C@H]([C@@H](C)CC)NC(=O)[C@H](CO)NC(=O)[C@H](C)NC(=O)[C@H]([C@@H](C)O)NC(=O)[C@H](CCC(=O)O)NC1=O` [Example 5, Cyclo(-OctGly-Glu-Thr-Ala-Ser-Ile-Pro-Pro-Gln-Lys-hGln-^DPro-Pro-)] (cyclo([Gly(octyl)]ETASIPPQK[Aad](NH2)[dP]P)) was run?
A: 161

Q: What about the IC50 [1] of the same compound?
A: 1590 nM

Q: What about the IC50 [2] of the same compound?
A: 9.9 nM

Q: And the hNE/hPr3 selectivity (human proteinase 3)?
A: 237

Q: What about the IC50 (human proteinase 3) of the same compound?
A: 2350 nM

Reference: patent publication US10273267B2, “Beta-hairpin peptidomimetics as selective elastase inhibitors” (POLYPHOR AG, priority 2013, dated 2019)
